How the values were obtained:
[1] = target: T1, Epac2(AB) (Homo sapiens, UniProt Q8WZA2); experiment: In vitro GEF activity (initial velocity of GDP exchange on Rap1A) of Epac2(AB); format: biochemical; conditions: 50 μM racemic CE3F4; agonist 50 μM 007 or 300 μM cAMP; FIG. 6A
T1 construct: Human Epac2(AB) (amino acids 43-1011) carries both the CNB-A and the CNB-B domains; made in house; host or cells: Escherichia coli Rosetta 2(DE3)
T1 sequence (Q8WZA2 43-1011): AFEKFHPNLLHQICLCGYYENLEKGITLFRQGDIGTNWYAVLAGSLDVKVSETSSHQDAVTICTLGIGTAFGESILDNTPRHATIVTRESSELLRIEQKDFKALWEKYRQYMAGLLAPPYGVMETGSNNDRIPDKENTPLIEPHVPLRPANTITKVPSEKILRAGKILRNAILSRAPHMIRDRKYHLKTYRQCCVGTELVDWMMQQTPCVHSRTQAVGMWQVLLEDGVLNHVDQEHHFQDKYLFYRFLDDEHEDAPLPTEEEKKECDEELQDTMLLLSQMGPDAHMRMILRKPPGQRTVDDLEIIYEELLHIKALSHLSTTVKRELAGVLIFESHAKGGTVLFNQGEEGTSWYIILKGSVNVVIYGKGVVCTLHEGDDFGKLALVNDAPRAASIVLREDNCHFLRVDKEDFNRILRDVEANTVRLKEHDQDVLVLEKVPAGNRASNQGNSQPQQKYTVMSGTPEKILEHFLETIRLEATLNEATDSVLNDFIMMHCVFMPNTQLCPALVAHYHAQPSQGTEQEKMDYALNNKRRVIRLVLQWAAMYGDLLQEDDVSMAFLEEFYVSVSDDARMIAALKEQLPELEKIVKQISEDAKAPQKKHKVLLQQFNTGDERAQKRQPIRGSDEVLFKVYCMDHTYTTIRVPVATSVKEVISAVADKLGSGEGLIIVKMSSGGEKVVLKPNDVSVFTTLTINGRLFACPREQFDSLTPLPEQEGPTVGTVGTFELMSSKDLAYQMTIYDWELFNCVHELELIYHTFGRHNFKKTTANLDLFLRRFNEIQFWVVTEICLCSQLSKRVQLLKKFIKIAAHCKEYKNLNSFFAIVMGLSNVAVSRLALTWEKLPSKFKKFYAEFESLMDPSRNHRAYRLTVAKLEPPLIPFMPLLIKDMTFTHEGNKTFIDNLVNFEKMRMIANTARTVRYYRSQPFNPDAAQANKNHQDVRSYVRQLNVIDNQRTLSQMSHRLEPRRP
From the text: Human Epac2(AB) (amino acids 43-1011) carries both the CNB-A and the CNB-B domains. Human Epac2(B) (amino acids 283-1011) lacks the first 283 amino acids of Epac2. It is therefore deleted of its CNB-A and DEP domains, but retains the CNB-B domain and the full catalytic region. Epac2(AB) was obtained by HindIII/NotI restriction and Epac2(B) was obtained by Ssp1/Not1 restriction of a human Epac2A cDNA (a gift from Ann M Graybiel, Department of Brain and Cognitive Sciences, MIT, Cambridge). Both cDNA fragments were inserted into pET41a (Novagen), expressed in Escherichia coli Rosetta 2(DE3) (Novagen), and the GST-tagged fusion proteins were purified by nickel-nitrilotriacetic acid beads (Qiagen), as described in D. Courilleau, et al., Identification of a tetrahydroquinoline analog as a pharmacological inhibitor of the cAMP-binding protein Epac, J. Biol. Chem. 287 (2012) 44192-44202).
In vitro GDP exchange catalyzed by Epac was measured using purified recombinant Epac isoforms and Rap1A loaded with Bodipy-GDP, as described in D. Courilleau, et al (above mentioned). […] The release of Bodipy-GDP was measured in real time as the decay of fluorescence. […] The initial velocity (Vi) of GDP exchange on Rap1 was calculated as described in D. Courilleau et al.).
Data are expressed as mean±S.D. Differences in quantitative variables were examined by unpaired one- or two-tailed Student's t test. […]

[2] = target: T2, Epac1 (Homo sapiens, UniProt O95398); experiment: In vitro GEF activity (initial velocity of GDP exchange on Rap1A) of Epac1; format: biochemical
T2 construct: Recombinant human Epac1 (residues 149-881), deleted of its Dishevelled, Egl-10, and Pleckstrin (DEP) domain; made in house
T2 sequence (O95398 149-881 isoform O95398-3): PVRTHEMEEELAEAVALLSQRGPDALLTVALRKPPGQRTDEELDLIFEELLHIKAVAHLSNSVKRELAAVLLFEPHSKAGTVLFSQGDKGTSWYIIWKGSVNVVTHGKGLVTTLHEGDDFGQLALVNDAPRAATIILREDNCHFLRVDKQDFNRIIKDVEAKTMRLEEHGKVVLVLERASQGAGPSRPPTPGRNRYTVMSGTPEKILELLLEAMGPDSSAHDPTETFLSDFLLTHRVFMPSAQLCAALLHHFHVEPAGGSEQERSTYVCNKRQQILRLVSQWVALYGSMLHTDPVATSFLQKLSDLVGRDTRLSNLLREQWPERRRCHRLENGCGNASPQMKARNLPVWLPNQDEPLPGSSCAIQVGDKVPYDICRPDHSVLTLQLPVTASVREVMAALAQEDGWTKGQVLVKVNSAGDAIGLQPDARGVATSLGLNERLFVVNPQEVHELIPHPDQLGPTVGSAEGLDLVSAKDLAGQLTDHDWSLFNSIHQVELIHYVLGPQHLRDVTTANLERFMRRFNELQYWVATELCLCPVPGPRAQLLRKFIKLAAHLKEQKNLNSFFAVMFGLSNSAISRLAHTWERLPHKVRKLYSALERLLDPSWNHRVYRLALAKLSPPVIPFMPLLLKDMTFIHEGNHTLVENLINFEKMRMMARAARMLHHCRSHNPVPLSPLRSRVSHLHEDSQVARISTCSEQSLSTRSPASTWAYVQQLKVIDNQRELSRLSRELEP
Description: Protein NCBI Reference Sequences for human Epac1 and Epac2 are NP_006096 and NP_008954, respectively. Recombinant human Epac1 (residues 149-881), deleted of its Dishevelled, Egl-10, and Pleckstrin (DEP) domain, and human Rap1A were produced with GST as a fusion tag (D. Courilleau et al., Identification of a tetrahydroquinoline analog as a pharmacological inhibitor of the cAMP-binding protein Epac, J. Biol. Chem. 287 (2012) 44192-44202).
In vitro GDP exchange catalyzed by Epac was measured using purified recombinant Epac isoforms and Rap1A loaded with Bodipy-GDP, as described in D. Courilleau, et al (above mentioned). The GEF activity of Epac proteins was initiated by injection of the agonist. Stock solutions of CE3F4 and its analogs (12 mM in 100% DMSO) were kept at −20° C. and were diluted in assay buffer (0.67% final DMSO concentration) just before use for GDP exchange assays. The release of Bodipy-GDP was measured in real time as the decay of fluorescence. A single exponential was fit to the time-course data using the Graphpad Prism program. The initial velocity (Vi) of GDP exchange on Rap1 was calculated as described in D. Courilleau et al.).
Data are expressed as mean±S.D. Differences in quantitative variables were examined by unpaired one- or two-tailed Student's t test. EC50 and IC50 values were computed according to a four-parameters dose-response model and compared on the basis of the extra sum-of square F test, using Graphpad Prism. Two-tailed Wilcoxon matched-pair signed rank tests were performed using GraphPad Prism.

Structure (SMILES): CC1CCc2c(cc(Br)c(F)c2Br)N1C=O (racemic) [CE3F4]
- Inhibitory effect on GEF activity of Epac2(AB), compared with Epac2(B) [1]: no significant difference
- Inhibition of GEF activity of Epac1 compared with Epac2(AB) or Epac2(B) ([2]; 50 μM racemic CE3F4, agonist 50 μM 007 or 300 μM cAMP, FIG. 6A): much more inhibited
- EC50 ([2]; Epac1 GEF activity toward Rap1, Epac1 activated by 20 μM 007, mean of n=4 to 9 independent determinations): 10.7 µM
- IC50 ([2]; Epac1 activated by 300 μM cAMP): 11 µM
- Antagonism of cAMP-activated Epac1 GEF activity ([2]; compound 30 μM, 300 μM cAMP, FIG. 6C): stronger antagonist
